For 33 molecules, IC50 results are on record in US10329270B2, “Heteroaryl compounds as BTK inhibitors and uses thereof” (Merck Patent GmbH, priority 2013, dated 2019).

Counter-ions that a name gives are not always drawn.

The assay deals with T1, full-length human BTK (Homo sapiens, UniProt Q06187).
T1 construct: 2.5× stocks of full-length human BTK (08-080); purchased CarnaBio USA, Inc., Natick, Mass; 08-080
T1 sequence (Q06187 whole entry): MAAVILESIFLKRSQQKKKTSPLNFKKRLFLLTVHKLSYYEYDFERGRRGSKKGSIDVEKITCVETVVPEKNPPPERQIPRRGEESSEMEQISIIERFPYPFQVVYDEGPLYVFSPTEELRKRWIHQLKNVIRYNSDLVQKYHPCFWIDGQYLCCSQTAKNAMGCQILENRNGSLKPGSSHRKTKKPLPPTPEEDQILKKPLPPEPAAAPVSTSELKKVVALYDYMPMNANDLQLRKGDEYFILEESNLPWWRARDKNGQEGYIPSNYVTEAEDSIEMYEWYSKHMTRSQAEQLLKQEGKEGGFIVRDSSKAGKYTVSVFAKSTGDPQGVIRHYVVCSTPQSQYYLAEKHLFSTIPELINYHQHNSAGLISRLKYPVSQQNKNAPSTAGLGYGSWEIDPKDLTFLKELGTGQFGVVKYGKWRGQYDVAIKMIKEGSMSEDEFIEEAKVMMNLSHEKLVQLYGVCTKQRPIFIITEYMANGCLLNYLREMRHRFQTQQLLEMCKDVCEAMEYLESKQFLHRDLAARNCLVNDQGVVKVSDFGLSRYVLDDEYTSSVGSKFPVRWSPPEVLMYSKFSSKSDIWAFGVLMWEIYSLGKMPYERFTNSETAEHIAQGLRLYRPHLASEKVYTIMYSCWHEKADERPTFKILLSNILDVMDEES
Description: Assay A: BTK IC50 Enzyme Assay (microfluidic off-chip mobility shift kinase assay). It counts as biochemical. Conditions: full-length human BTK, kinKDR peptide substrate, incubated 90 min at 27 C; read-out: Assay A (Time Dependent BTK Enzyme Assay IC50). Here is the method: Assay A: BTK IC50 Enzyme Assay
The following describes a microfluidic, off-chip mobility shift kinase assay used to measure inherent potency of compounds against BTK enzyme. Compounds described by embodiments of the present invention were assayed using this protocol and the data from the same is recorded in Table 2 within the column labeled: “Time Dependent BTK Enzyme Assay IC50”.
Stopped reactions were monitored at −2 PSI, −3000 V/−700 V in a LabChip 3000 plate reader from Caliper Life Sciences, a PerkinElmer Company (Hopkinton, Mass.), and the activity was measured by off-chip mobility shift assay measuring the charge/mass difference between substrate and product resulting from peptide phosphorilation. IC50 and efficacy were determined by plotting log [Inhibitor] vs. % Activity in GeneData Screener (Basel, Switzerland). […] I<1 uM and II>1 uM.
As to `C=CC(=O)N1CCC(Nc2ccc(C(N)=O)c(Nc3cccc(C)c3)n2)C1` (stereo not drawn) [Compound 50, 6-(1-Acryloyl-pyrrolidin-3-ylamino)-2-m-tolylamino-nicotinamide], the IC50 (commonly the midpoint of a concentration-inhibition curve) was less than 100 nM.

With `C=CC(=O)N[C@H]1CCN(c2ccc(C(N)=O)c(Nc3ccc(Oc4ccccc4)cc3)n2)C1` [Compound 54, 6-((S)-3-Acryloylamino-pyrrolidin-1-yl)-2-(4-phenoxy-phenylamino)-nicotinamide], the IC50 is less than 100 nM.

Take `C=CC(=O)N[C@H]1CCN(c2cc(Oc3ccc(Oc4ccccc4)cc3)c(C(N)=O)cn2)C1` [Compound 109, 6-((S)-3-Acryloylamino-pyrrolidin-1-yl)-4-(4-phenoxy-phenoxy)-nicotinamide]: the IC50 was less than 100 nM.

With `CN(C)C/C=C/C(=O)N[C@H]1C[C@@H](Nc2ncc(C(N)=O)c(N)n2)C1` [Compound 162, 4-Amino-2-[3-(4-dimethylamino-but-2-enoylamino)-cyclobutylamino]-pyrimidine-5-carboxylic acid amide], the half-inhibitory concentration (IC50) was greater than 5000 nM.

For the molecule `C=CC(=O)N1CCC(c2ccc(C(N)=O)c(Oc3ccc(Oc4ccc(C)cc4)cc3)n2)C1` (stereo not drawn) [Compound 81, 6-(1-acryloylpyrrolidin-3-yl)-2-(4-(p-tolyloxy)phenoxy)nicotinamide], the IC50 is less than 100 nM.

For the molecule `N#C/C(=C\C1CC1)C(=O)N1C[C@@H]2C[C@H]1CN2c1ncc(C(N)=O)c(Oc2ccc(Oc3ccccc3)cc2)n1` [Compound 210, 2-((1S,4S)-5-((E)-2-cyano-3-cyclopropylacryloyl)-2,5-diazabicyclo[2.2.1]heptan-2-yl)-4-(4-phenoxyphenoxy)pyrimidine-5-carboxamide], the IC50 fell in the range of 1000 to 5000 nM.

As for `C=CC(=O)N1CCCC(c2ccc(C(N)=O)c(Nc3ccc(CCN4CCCC4)cc3)n2)C1` (stereo not drawn) [Compound 42, 1′-Acryloyl-6-[4-(2-pyrrolidin-1-yl-ethyl)-phenylamino]-1′,2′,3′,4′,5′,6′-hexahydro-[2,3′]bipyridinyl-5-carboxylic acid amide], the IC50 is less than 100 nM.

Take `C=CC(=O)N[C@H]1CCN(c2cc(Oc3ccc(OCc4ccccc4)cc3)c(C(N)=O)cn2)C1` [Compound 112, (S)-6-(3-acrylamidopyrrolidin-1-yl)-4-(4-(benzyloxy)phenoxy)nicotinamide]: the IC50 fell in the range of 100 to 1000 nM.

Take `C=CC(=O)N1CCC(c2cnc(Oc3ccc(Oc4ccccc4)cc3)c(C(N)=O)c2)CC1` [Compound 127, 1′-Acryloyl-6-(4-phenoxy-phenoxy)-1′,2′,3′,4′,5′,6′-hexahydro-[3,4′]bipyridinyl-5-carboxylic acid amide]: the IC50 is 100 to 1000 nM.

`C=CC(=O)N[C@H]1CCN(c2ccc(C(N)=O)c(Nc3ccc(CCN4CCC(F)(F)C4)cc3)n2)C1` [Compound 24, 6-((S)-3-Acryloylamino-pyrrolidin-1-yl)-2-{4-[2-(3,3-difluoro-pyrrolidin-1-yl)-ethyl]-phenylamino}-nicotinamide]: the IC50 was less than 100 nM.

Turning to `C=CC(=O)NC1CC2(C1)CC(Nc1ncc(C(N)=O)c(Oc3ccc(Oc4ccccc4)cc3)n1)C2` (stereo not drawn) [Compound 195, 2-((6-acrylamidospiro[3.3]heptan-2-yl)amino)-4-(4-phenoxyphenoxy)pyrimidine-5-carboxamide], the IC50 lay within 1000 to 5000 nM.

With `C=CC(=O)N[C@H]1CCN(c2ccc(C(N)=O)c(Oc3ccc(C(=O)Nc4ccccc4)cc3)n2)C1` [Compound 96, (S)-6-(3-acrylamidopyrrolidin-1-yl)-2-(4-(phenylcarbamoyl)phenoxy)nicotinamide], the IC50 was 1000 to 5000 nM.

Regarding `C=CC(=O)N1C[C@@H]2C[C@H]1CN2c1ccc(C(N)=O)c(Nc2cccnc2)n1` [Compound 15, 6-((1S,4S)-5-acryloyl-2,5-diazabicyclo[2.2.1]heptan-2-yl)-2-(pyridin-3-ylamino)nicotinamide], the IC50 was less than 100 nM.

For the molecule `C=CC(=O)N1CCC(c2ccc(C(N)=O)c(Nc3ccc(C(=O)N4CCN(C(=O)CCCCN)CC4)cc3)n2)CC1` [Compound 29, 1′-Acryloyl-6-{4-[4-(5-amino-pentanoyl)-piperazine-1-carbonyl]-phenylamino}-1′,2′,3′,4′,5′,6′-hexahydro-[2,4′]bipyridinyl-5-carboxylic acid amide hydrochloride], the IC50 is less than 100 nM.

As to `C=CC(=O)N[C@H]1CCN(c2ccc(C(N)=O)c(Nc3ccc(Oc4ccnc(C(=O)NC)c4)cc3)n2)C1` [Compound 36, 6-((S)-3-Acryloylamino-pyrrolidin-1-yl)-2-[4-(2-methylcarbamoyl-pyridin-4-yloxy)-phenylamino]-nicotinamide], the IC50 was less than 100 nM.

For the molecule `C=CC(=O)NCc1ccc(-c2ccc(C(N)=O)c(Oc3ccc(Oc4ccccc4)cc3)n2)o1` [Compound 161, 6-(5-(acrylamidomethyl)furan-2-yl)-2-(4-phenoxyphenoxy)nicotinamide], the IC50 was greater than 5000 nM.

Take `C=CC(=O)N[C@H]1CCN(c2ccc(C(N)=O)c(Nc3ccc(N4CCC(F)(F)CC4)cc3)n2)C1` [Compound 25, 6-((S)-3-Acryloylamino-pyrrolidin-1-yl)-2-[4-(4,4-difluoro-piperidin-1-yl)-phenylamino]-nicotinamide]: the IC50 was less than 100 nM.

As to `N#CN1CCC(Nc2cnc(Oc3ccc(Oc4ccccc4)cc3)c(C(N)=O)c2)CC1` [Compound 246, 5-[(1-cyanopiperidin-4-yl)amino]-2-(4-phenoxyphenoxy)pyridine-3-carboxamide], the 50% inhibitory concentration (IC50) is greater than 5000 nM.

`C=CC(=O)N[C@H]1CCN(c2ccc(C(N)=O)c(Nc3ccc(N4CCCCC4)nc3)n2)C1` [Compound 39, (S)-6-(3-acrylamidopyrrolidin-1-yl)-2-((6-(piperidin-1-yl)pyridin-3-yl)amino)nicotinamide]: the IC50 was less than 100 nM.

On to `N#CN1CCC(Nc2cnc(Oc3ccc(Oc4ccc(F)cc4F)cc3)c(C(N)=O)c2)C1` (stereo not drawn) [Compound 250, 5-[(1-cyanopyrrolidin-3-yl)amino]-2-[4-(2,4-difluorophenoxy)phenoxy]pyridine-3-carboxamide], for which the IC50 was in the range of 1000 to 5000 nM.

With `C=CC(=O)N1CCC(c2ccc(C(N)=O)c(Nc3ccc(C(=O)N4CCN(C(=O)CCCCNC(=S)Nc5ccc(C6=C7C(C)=CC(C)=[N+]7[B-](F)(F)n7c(C)cc(C)c76)cc5)CC4)cc3)n2)CC1` [Compound 63, 1′-Acryloyl-6-{4-[4-(5-{3-[4-(4,4-difluoro-1,3,5,7-tetramethyl-3a,4alambda4-diaza-4lambda4-bora-s-indacen-8-yl)-phenyl]-thioureido}-pentanoyl)-piperazine-1-carbonyl]-phenylamino}-1′,2′,3′,4′,5′,6′-hexahydro-[2,4′]bipyridinyl-5-carboxylic acid amide], the IC50 was less than 100 nM.

As for `C=CC(=O)N1CCC(O)(c2ccc(C(N)=O)c(Oc3ccc(Oc4ccccc4)cc3)n2)C(O)C1` (stereo not drawn) [Compound 77, 1′-Acryloyl-3′,4′-dihydroxy-6-(4-phenoxy-phenoxy)-1′,2′,3′,4′,5′,6′-hexahydro-[2,4′]bipyridinyl-5-carboxylic acid amide], the IC50 is less than 100 nM.

Turning to `C=CC(=O)N[C@H]1CCN(c2cc(Oc3cnn(Cc4ccccc4)c3)c(C(N)=O)cn2)C1` [Compound 115], the IC50 lay within 100 to 1000 nM.

`C=CC(=O)N[C@H]1CCN(c2ccc(C(N)=O)c(Oc3ccc(OCc4ccccc4)cc3)n2)C1` [Compound 90, (S)-6-(3-acrylamidopyrrolidin-1-yl)-2-(4-(benzyloxy)phenoxy)nicotinamide]: the IC50 fell in the range of 100 to 1000 nM.

As to `C=CC(=O)N1CCN(c2nc(N(C)c3cccc(C)c3)ccc2C(N)=O)CC1` [Compound 158, 2-(4-Acryloyl-piperazin-1-yl)-6-(methyl-m-tolyl-amino)-nicotinamide], the IC50 is 100 to 1000 nM.

Take `C=CC(=O)N1CCC(Nc2ncc(C(N)=O)c(N)n2)C1` (stereo not drawn) [Compound 141, 2-(1-Acryloyl-pyrrolidin-3-ylamino)-4-amino-pyrimidine-5-carboxylic acid amide]: the IC50 is 100 to 1000 nM.

`C=CC(=O)N1CCC(c2cnc(C(N)=O)nc2)CC1` [Compound 153]: the IC50 is greater than 5000 nM.

`C=CC(=O)N1C2CC1CN(c1ncc(C(N)=O)c(Oc3ccc(Oc4ccccc4)cc3)n1)C2` [Compound 193, 2-(6-acryloyl-3,6-diazabicyclo[3.1.1]heptan-3-yl)-4-(4-phenoxyphenoxy)pyrimidine-5-carboxamide]: the IC50 was in the range of 100 to 1000 nM.

Regarding `C=CC(=O)N[C@H]1CCN(c2ccc(C(N)=O)c(Oc3ccc(Oc4cccc(F)c4)cc3)n2)C1` [Compound 73, (S)-6-(3-acrylamidopyrrolidin-1-yl)-2-(4-(3-fluorophenoxy)phenoxy)nicotinamide], the IC50 was less than 100 nM.

On to `C=CC(=O)N[C@H]1CCN(c2ncc(C(N)=O)cc2-c2ccc(Oc3ccccc3)cc2)C1` [Compound 170, 6-((S)-3-Acryloylamino-pyrrolidin-1-yl)-5-(4-phenoxy-phenyl)-nicotinamide], for which the concentration for half-maximal inhibition (IC50) was greater than 5000 nM.

On to `C=CC(=O)N[C@@H]1CCN(c2ccc(C(N)=O)c(Nc3ccc(C(=O)N4CCOCC4)cc3)n2)C1` [Compound 47, 6-((R)-3-Acryloylamino-pyrrolidin-1-yl)-2-[4-(morpholine-4-carbonyl)-phenylamino]-nicotinamide], for which the IC50 was less than 100 nM.

As to `C=CC(=O)N1CCC(Nc2cnc(Oc3ccc(Oc4cccc(F)c4)cc3)c(C(N)=O)c2)CC1` [Compound 228, 5-(1-Acryloyl-piperidin-4-ylamino)-2-[4-(3-fluoro-phenoxy)-phenoxy]-nicotinamide], the IC50 is less than 100 nM.

Turning to `C=CC(=O)Nc1ccc(-c2ccc(C(N)=O)c(Oc3ccc(Oc4ccccc4)cc3)n2)cc1` [Compound 159, 6-(4-acrylamidophenyl)-2-(4-phenoxyphenoxy)nicotinamide], the IC50 was greater than 5000 nM.
